This series concerns dog and primate chronic carcinogenicity bioassays, TD50. The series can be described thus: DSSTox (CPDBAS) Carcinogenic Potency Database Summary Dog & Primates Bioassay Results. From the text: The Carcinogenic Potency Database (CPDB) is a unique and widely used international resource of the results of over 6500 chronic, long-term animal cancer tests on over 1500 chemical substances. The CPDB provides easy access to the bioassay literature, with qualitative and quantitative analyses of both positive and negative experiments that have been published over the past 50 years in the general literature and by the National Cancer Institute/National Toxicology Program. The CPDB standardizes the diverse literature of cancer bioassays that vary widely in protocol, histopathological examination and nomenclature, and in the published author's choices of what information to provide in their papers. Results are reported in the CPDB for tests in rats, mice, hamsters, dogs, and nonhuman primates, and are based on the most positive result among all experiments for each sex-species. The DSSTox CPDBAS (all species) file incorporates data from the CPDB Summary Tables for the full list of over 1500 chemical substances tested in at least one species. Summary bioassay results for Dogs and Non-Human Primates (TD50, tumor sites) are provided in the CPDB Summary Tables and the DSSTox CPDBAS file for more than 30 chemical substances.
TD50 is a standardized quantitative measure of carcinogenic potency (analogous to an LD50) and is reported in the CPDB Summary Table for each species. Comments pertaining to the Dog or Primates (Cynomolgus, Rhesus, Bush Baby, Tree Shrew) TD50 (corresponding to footnote indices in the original CPDB Summary Table) are provided in the TD50_Dog_Primates_Note field. […] Target sites are reported for each species with a positive result in the CPDB on the basis of a positive author's opinion for the particular site and using all results from both the general literature and NCI/NTP bioassays. If a chemical has two or more target sites listed, the results may be from different experiments, and a single site may be a target organ in more than one experiment, as well. Blank entry in TargetSites field indicates no results reported.

Activity calls are given as the source filed them. The rule behind the calls is not given here.

Turning to `C#C[C@@]1(O)CC[C@H]2[C@@H]3CCC4=CCCC[C@@H]4[C@H]3CC[C@@]21C`, the outcome was active. For `COc1cc2c(c3oc4cccc(O)c4c(=O)c13)C1C=COC1O2` (stereo unspecified), the result was active.

Take `CCCN(CCC)N=O`: the Potency is 0.0121 mg/kg/day.

As for `Nc1ccc(-c2ccc(N)c(Cl)c2)cc1Cl`, the result was active. As for `CNNCc1ccc(C(=O)NC(C)C)cc1`, the Potency is 4.21 mg/kg/day. Still for that read-out and setting: in the case of `CCN(CC)N=O` it was 0.0536 mg/kg/day. `N[C@@H](Cc1ccc(N(CCCl)CCCl)cc1)C(=O)O`: the outcome was “active; no positive results”.

With `COc1cc2c(c3oc(=O)c4c(c13)CCC4=O)C1C=COC1O2` (stereo unspecified), the Potency is 0.0082 mg/kg/day. As to `O=P1(N(CCCl)CCCl)NCCCO1` (stereo unspecified), the outcome was “inactive; no positive results”. As for `Nc1ccc2ccccc2c1`, the Potency is 5.74 mg/kg/day.

For the compound `Cc1cccc(N=Nc2ccc(N(C)C)cc2)c1`, the outcome was “inactive; no positive results”. On to `Clc1ccc(C(c2ccc(Cl)cc2)C(Cl)(Cl)Cl)cc1`, for which the outcome was “inactive; no positive results”. With `CCOC(N)=O`, the Potency was 65.2 mg/kg/day. For `C#C[C@]1(OC(C)=O)CC[C@H]2[C@@H]3CCC4=CC(=O)CC[C@@H]4[C@H]3CC[C@@]21C`, the outcome is “inactive; no positive results”. Regarding `CN(C)c1ccc(N=Nc2ccccc2)cc1`, the outcome is “inactive; no positive results”. Still for that read-out and setting: with `CC(=O)Nc1ccc2c(c1)Cc1cc(NC(C)=O)ccc1-2` the entry was “inactive; no positive results”; with `O=C1NS(=O)(=O)c2ccccc21`, “inactive; no positive results”. For `Nc1ccc(Cc2ccc(N)c(Cl)c2)cc1Cl`, the outcome was active.

On to `C/[N+]([O-])=N/CO[C@@H]1O[C@H](CO)[C@@H](O)[C@H](O)[C@H]1O`, for which the Potency was 0.0657 mg/kg/day. For the compound `O=[As](O)(O)O`, the outcome was inactive. Still for that read-out and setting: in the case of `ClC(Cl)Cl` it was “inactive”; in that of `Cn1cnc([N+](=O)[O-])c1Sc1ncnc2nc[nH]c12`, “inactive; no positive results”.

For `O=S(=O)(O)NC1CCCCC1`, the outcome was “inactive; no positive results”. On the same count and under the same terms, with `Cc1ccc2cc3c(ccc4ccccc43)c3c2c1CC3` the entry was “inactive; no positive results”. On the same count and under the same terms, in the case of `CC(=O)Nc1ccc2c(c1)Cc1ccccc1-2` it was “inactive; no positive results”; in that of `COc1cccc2c1C(=O)c1c(O)c3c(c(O)c1C2=O)C[C@@](O)(C(=O)CO)C[C@@H]3O[C@H]1C[C@H](N)[C@H](O)[C@H](C)O1`, “inactive; no positive results”. For the compound `Cn1c(N)nc2c3cccnc3ccc21`, the outcome was active. The same measure, in the same setting: with `CN(C)N=O` the entry was “inactive; no positive results”; with `Cc1cc(C)c(S(=O)(=O)O)cc1N=Nc1cc(S(=O)(=O)O)c2ccccc2c1O`, “inactive”. With `CN(N=O)C(N)=O`, the Potency was 7.18 mg/kg/day. Still for that read-out and setting: with `O=NN1CCCCC1` the figure was 2.76 mg/kg/day.

The values are drawn from PubChem BioAssay AID1190 (EPA DSSTox, 2008).
